Data published in patent US20240108685A1, “ORAL LIPOSOMAL COMPOSITIONS” (priority 2021, published 2024).

Test system: 4T-1 cells of mammary cancer
Test: Orthotopic 4T1 breast cancer model, lung metastases
Type: in vivo, BALB/c mice
Details: after 3 weeks
Description: The objective of this study was to evaluate the capacity of a suspension of liposomal MTP-PE, prepared according to the invention and administered orally, to inhibit the development of pulmonary metastases from cancer of the mammary gland.
The experimental model consisted of using immunocompetent mice of the BALB/c strain and performing an orthotopic transplant of 4T-1 cells of mammary cancer of murine origin.
This orthotopic graft forms a tumor reproducing human breast cancer which disseminates and forms metastases in the lungs after 3 weeks.
Suspensions of liposomes were prepared according to the method indicated in example 1.
4T1 tumors were induced on day zero (DO) orthotopically in 60 BALB/c female mice under anesthesia.
A total of 300,000 4T1 tumor cells were slowly injected into the right thoracic breast tissue.
Animals were randomized by tumor size on Day 9 into six groups of ten animals each […]. Homogeneity of tumor sizes between groups was tested by analysis of variance (ANOVA).
The animals of Groups 1, 2 and 3 were treated respectively with Batch H3 (control), Batch G3 and Batch G3 twice a week orally.
Additionally, animals in Groups 2 and 4 were treated with intravenous injections of doxorubicin at 8 mg/kg once weekly for 3 weeks. […] The number of lung metastases was counted using a binocular loupe.

COc1cccc2c1C(=O)c1c(O)c3c(c(O)c1C2=O)C[C@@](O)(C(=O)CO)C[C@@H]3O[C@H]1C[C@H](N)[C@H](O)[C@H](C)O1 [doxorubicin]
Effect on lung metastases (in words): did not show significant efficacy
